# From article PMC12203311, “Design, synthesis, in silico and in vitro evaluation of pyrrole–indole hybrids as dual tubulin and aromatase inhibitors with potent anticancer activities” (RSC Advances, 2025)
# Tests used:
# [1] = tested on: CCRF-CEM; assay: NCI60 five-dose screen; type: cell-based; conditions: Homo sapiens, leukemia; for CC50: read-out: LC50 (the source's name)
# [2] = tested on: HOP-92; assay: NCI60 five-dose screen; type: cell-based; conditions: Homo sapiens, HOP-92, NSC lung cancer; for CC50: read-out: LC50 (the source's name)
# [3] = tested on: NCI-H322M; assay: NCI60 five-dose screen; type: cell-based; conditions: Homo sapiens, NSC lung cancer; for CC50: read-out: LC50 (the source's name)
# [4] = tested on: NCI-H522; assay: NCI60 five-dose screen; type: cell-based; conditions: Homo sapiens, NCI-H522, NSC lung cancer; for CC50: read-out: LC50 (the source's name)
# [5] = tested on: KM12; assay: NCI60 five-dose screen; type: cell-based; conditions: Homo sapiens, KM12, colon cancer; for CC50: read-out: LC50 (the source's name)
# [6] = tested on: SW-620; assay: NCI60 five-dose screen; type: cell-based; conditions: Homo sapiens, SW-620, colon cancer; for CC50: read-out: LC50 (the source's name)
# [7] = tested on: U251; assay: NCI60 five-dose screen; type: cell-based; conditions: Homo sapiens, U-251, U251, CNS cancer; for CC50: read-out: LC50 (the source's name)
# [8] = tested on: MALME-3M; assay: NCI60 five-dose screen; type: cell-based; conditions: Homo sapiens, melanoma; for CC50: read-out: LC50 (the source's name)
# [9] = tested on: M14; assay: NCI60 five-dose screen; type: cell-based; conditions: Homo sapiens, M14, melanoma; for CC50: read-out: LC50 (the source's name)
# [10] = tested on: MDA-MB-435; assay: NCI60 five-dose screen; type: cell-based, human; conditions: Homo sapiens; for CC50: MDA-MB-435, MDA-MB-435, melanoma, read-out: LC50 (the source's name); for GI50: MDA-MB-435, melanoma
# [11] = tested on: UACC-257; assay: NCI60 five-dose screen; type: cell-based; conditions: Homo sapiens, UACC-257, melanoma; for CC50: read-out: LC50 (the source's name)
# [12] = tested on: OVCAR-4; assay: NCI60 five-dose screen; type: cell-based; conditions: Homo sapiens, OVCAR-4, ovarian cancer; for CC50: read-out: LC50 (the source's name)
# [13] = tested on: OVCAR-5; assay: NCI60 five-dose screen; type: cell-based; conditions: Homo sapiens, OVCAR-5, ovarian cancer; for CC50: read-out: LC50 (the source's name)
# [14] = tested on: 786-0; assay: NCI60 five-dose screen; type: cell-based; conditions: Homo sapiens, 786-0, renal cancer; for CC50: read-out: LC50 (the source's name)
# [15] = tested on: A498; assay: NCI60 five-dose screen; type: cell-based; conditions: Homo sapiens, A498, renal cancer; for CC50: read-out: LC50 (the source's name)
# [16] = tested on: TK-10; assay: NCI60 five-dose screen; type: cell-based; conditions: Homo sapiens, TK-10, renal cancer; for CC50: read-out: LC50 (the source's name)
# [17] = tested on: DU-145; assay: NCI60 five-dose screen; type: cell-based; conditions: Homo sapiens, DU-145, prostate cancer; for CC50: read-out: LC50 (the source's name)
# [18] = tested on: HS 578T; assay: NCI60 five-dose screen; type: cell-based; conditions: Homo sapiens, breast cancer; for CC50: read-out: LC50 (the source's name)
# [19] = target: T1, Human CYP19 (aromatase) (Homo sapiens, UniProt P11511); assay: Aromatase inhibition assay (DBF fluorometric substrate); type: biochemical; conditions: active defined as IC50 < 12.5 µM
# T1 construct: purchased GENTEST, Woburn, MA 456260; host or cells: baculovirus/insect cells
# T1 sequence (P11511 1-503): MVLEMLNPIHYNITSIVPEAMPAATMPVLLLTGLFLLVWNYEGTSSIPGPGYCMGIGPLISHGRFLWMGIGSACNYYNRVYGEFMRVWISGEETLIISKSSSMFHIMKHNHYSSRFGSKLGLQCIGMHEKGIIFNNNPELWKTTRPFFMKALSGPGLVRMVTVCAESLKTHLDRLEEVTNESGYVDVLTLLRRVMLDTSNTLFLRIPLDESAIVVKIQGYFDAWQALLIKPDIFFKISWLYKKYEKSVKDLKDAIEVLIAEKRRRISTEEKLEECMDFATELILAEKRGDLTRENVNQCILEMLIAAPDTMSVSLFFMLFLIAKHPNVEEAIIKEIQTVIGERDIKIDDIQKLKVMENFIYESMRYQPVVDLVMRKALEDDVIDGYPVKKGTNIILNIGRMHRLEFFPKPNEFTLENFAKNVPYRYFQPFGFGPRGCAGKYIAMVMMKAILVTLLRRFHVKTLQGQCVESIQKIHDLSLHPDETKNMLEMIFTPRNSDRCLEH
# Outline: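 Insect-cell-expressed human CYP19 Supersomes with oxidoreductase turned over DBF for 30 min at 37 °C after a 10 min 37 °C pre-incubation with cofactor. NaOH quench; product measured by fluorescence, excitation 490 nm, emission 530 nm.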
# [20] = tested on: T47D breast cancer cell line; assay: Cytotoxicity MTT assay, T47D; type: cell-based, human; conditions: Homo sapiens, T47D; MTT, 48 hours
# Outline: (§1)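 Read-out is absorbance at 570 nm of DMSO-solubilised formazan after a 3-hour incubation with 0.5 mg mL^−1 MTT. Percent viability is relative to vehicle (DMSO).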
# [21] = Cytotoxicity MTT assay, L929; type: cell-based, mouse; conditions: mouse, L929 fibroblast cells; MTT, 48 hours
# Outline: as §1
# [22] = tested on: L929 normal mouse fibroblast cell line; assay: Cytotoxicity MTT assay, L929; type: cell-based; conditions: IC50 (L929)/IC50 (T47D)
# Outline: as §1
SMILES,GI50 [1],CC50 [1],GI50 [2],CC50 [2],GI50 [3],CC50 [3],GI50 [4],CC50 [4],GI50 [5],CC50 [5],GI50 [6],CC50 [6],GI50 [7],CC50 [7],GI50 [8],CC50 [8],GI50 [9],CC50 [9],CC50 [10],GI50 [10],further results
"O=C(N/N=C/c1cc(Br)c(Br)[nH]1)c1[nH]c2ccc(Br)cc2c1-c1ccccc1 [Derivative 3f, (E)-5-Bromo-N′-((4,5-dibromo-1H-pyrrol-2-yl)methylene)-3-phenyl-1H-indole-2-carbohydrazide]",2.89 µM,> 100 µM,1.88 µM,46 µM,3.73 µM,62.8 µM,0.623 µM,23.2 µM,2.46 µM,35.3 µM,2.96 µM,41.9 µM,2.95 µM,36 µM,2.97 µM,42.4 µM,2.81 µM,66.1 µM,19.6 µM,1.01 µM,GI50 [11]: 3.24 µM; CC50 [11]: 45.7 µM; GI50 [12]: 5.2 µM; CC50 [12]: 45.8 µM; GI50 [13]: 3.6 µM; CC50 [13]: 40.2 µM; GI50 [14]: 4.91 µM; CC50 [14]: 64.1 µM; GI50 [15]: 11.1 µM; CC50 [15]: 49.4 µM; GI50 [16]: 6.8 µM; CC50 [16]: 49.5 µM; GI50 [17]: 3.18 µM; CC50 [17]: 33.9 µM; GI50 [18]: 1.82 µM; CC50 [18]: > 100 µM; IC50 [19]: 1.5 ± 0.3 µM; IC50 [20]: 19.1 ± 5.4 µM; IC50 at 48 h [21]: 47.9 ± 0.5 µM; Selectivity index (SI) [22]: 2.51
"CCOC(=O)c1c[nH]c(/C=N/NC(=O)c2[nH]c3ccc(Br)cc3c2-c2ccccc2)c1 [Derivative 3j, Ethyl (E)-5-((2-(5-bromo-3-phenyl-1H-indole-2-carbonyl)hydrazono)methyl)-1H-pyrrole-3-carboxylate]",2.41 µM,> 100 µM,4.56 µM,58.6 µM,5.63 µM,50 µM,2.27 µM,33 µM,2.21 µM,33.9 µM,3.36 µM,76.2 µM,2.66 µM,40.6 µM,6.06 µM,54.9 µM,2.39 µM,50.3 µM,16.1 µM,1.09 µM,GI50 [11]: 2.53 µM; CC50 [11]: 51.8 µM; GI50 [12]: 2.28 µM; CC50 [12]: 34.8 µM; GI50 [13]: 3.87 µM; CC50 [13]: 42.9 µM; GI50 [14]: 3.29 µM; CC50 [14]: 44.7 µM; GI50 [15]: 3.53 µM; CC50 [15]: 43.4 µM; GI50 [16]: 7.35 µM; CC50 [16]: 46.2 µM; GI50 [17]: 3.48 µM; CC50 [17]: 35.6 µM; GI50 [18]: 2.36 µM; CC50 [18]: > 100 µM; IC50 [19]: 1.3 ± 0.4 µM; IC50 [20]: 10.4 ± 2.9 µM; IC50 at 48 h [21]: 12.2 ± 1 µM; Selectivity index (SI) [22]: 1.17
